Test results as given in patent publication US8367838B2, “Amines or amino alcohols as GLYT1 inhibitors” (Hoffmann-La Roche Inc., priority 2009, dated 2013).
Where a name gives a salt, the structure may show the parent alone.

Molecular target: T1, mGlyT-1b (Mus musculus, UniProt P28571)
T1 construct: host or cells: Flp-in-CHO
T1 sequence (P28571 1-651 isoform P28571-2): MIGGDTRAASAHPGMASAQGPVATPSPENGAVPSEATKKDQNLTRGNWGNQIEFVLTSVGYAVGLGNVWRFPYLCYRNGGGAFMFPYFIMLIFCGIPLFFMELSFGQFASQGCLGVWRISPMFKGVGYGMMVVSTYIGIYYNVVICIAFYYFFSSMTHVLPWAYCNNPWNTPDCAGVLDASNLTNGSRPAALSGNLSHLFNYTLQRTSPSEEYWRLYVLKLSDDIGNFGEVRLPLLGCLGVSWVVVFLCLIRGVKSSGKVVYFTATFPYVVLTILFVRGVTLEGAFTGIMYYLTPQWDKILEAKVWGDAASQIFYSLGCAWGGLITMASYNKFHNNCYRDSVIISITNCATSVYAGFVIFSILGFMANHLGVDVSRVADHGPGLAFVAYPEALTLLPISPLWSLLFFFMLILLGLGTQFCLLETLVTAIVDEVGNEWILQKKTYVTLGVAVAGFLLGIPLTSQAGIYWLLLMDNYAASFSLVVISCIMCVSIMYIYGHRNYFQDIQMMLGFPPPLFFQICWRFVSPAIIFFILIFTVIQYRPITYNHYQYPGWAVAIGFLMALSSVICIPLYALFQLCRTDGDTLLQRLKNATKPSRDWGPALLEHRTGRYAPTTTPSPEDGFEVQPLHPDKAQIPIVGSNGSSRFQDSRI
Assay: Glycine uptake inhibition assay (mGlyT-1b), [3H]-glycine uptake in transfected Flp-in-CHO cells
Type: cell-based
Conditions: Flp-in-CHO cells transfected with mGlyT-1b cDNA; [3H]-glycine 60 nM and 25 μM non-radioactive glycine; 20 min preincubation at 22° C.; read-out: IC50 (μM) at GlyT-1; Ic50 (hglyt1b)
Description: Nutrient mixture F-12 (Gibco Life-technologies), fetal bovine serum (FBS) 5%, (Gibco life technologies), Penicillin/Streptomycin 1% (Gibco life technologies), Hygromycin 0.6 mg/ml (Gibco life technologies), Glutamine 1 mM Gibco life technologies).
150 mM NaCl, 10 mM Hepes-Tris, pH 7.4, 1 mM CaCl2, 2.5 mM KCl, 2.5 mM MgSO4, 10 mM (+) D-glucose. Flp-in™-CHO (Invitrogen Cat n° R758-07) cells stably transfected with mGlyT1b cDNA.
Glycine Uptake Inhibition Assay (mGlyT-1b)
On day 1 mammalian cells, (Flp-in™-CHO), transfected with mGlyT-1b cDNA, were plated at the density of 40,000 cells/well in complete F-12 medium, without hygromycin in 96-well culture plates. On day 2, the medium was aspirated and the cells were washed twice with uptake buffer (UB). The cells were then incubated for 20 min at 22° C. with either (i) no potential competitor, (ii) 10 mM non-radioactive glycine, (iii) a concentration of a potential inhibitor. A range of concentrations of the potential inhibitor was used to generate data for calculating the concentration of inhibitor resulting in 50% of the effect (e.g. IC50, the concentration of the competitor inhibiting glycine uptake of 50%). A solution was then immediately added containing [^3H]-glycine 60 nM (11-16 Ci/mmol) and 25 μM non-radioactive glycine. The plates were incubated with gentle shaking and the reaction was stopped by aspiration of the mixture and washing (three times) with ice-cold UB. The cells were lysed with scintillation liquid, shaken 3 hours and the radioactivity in the cells was counted using a scintillation counter.

| SMILES | IC50 |
| --- | --- |
| COc1cc([C@@H](O)[C@@H](N)c2ccc(Cl)c(Cl)c2)ccc1-c1cncc(F)c1 (racemic) [Example 3, rac-erythro-[2-Amino-2-(3,4-dichloro-phenyl)-1-[4-(5-fluoro-pyridin-3-yl)-3-methoxy-phenyl]-ethanoldihydrochloride] | 0.186 µM |
| COc1cc(-c2cncc(F)c2)ccc1[C@@H](O)[C@@H](N)c1ccc(Cl)c(Cl)c1 (racemic) [Example 4, rac-erythro-[2-Amino-2-(3,4-dichloro-phenyl)-1-[4-(5-fluoro-pyridin-3-yl)-2-methoxy-phenyl]-ethanoldihydrochloride] | 0.346 µM |
| CS(=O)(=O)c1cccc(-c2cccc([C@@H](O)[C@@H](N)c3ccc(Cl)c(Cl)c3)c2)c1 (racemic) [Example 5, rac-erythro-[2-Amino-2-(3,4-dichloro-phenyl)-1-(3′-methanesulfonyl-biphenyl-3-yl)-ethanol trifluoroacetate] | 0.615 µM |
| N[C@@H](c1ccc(Cl)cc1)[C@H](O)c1ccc(OC2CCCOC2)cc1 (mixture of isomers) [Example 9, rac-erythro-[2-Amino-2-(4-chloro-phenyl)-1-[4-(tetrahydro-pyran-3-yloxy)-phenyl]-ethanol] | 0.138 µM |
| CC(C)Oc1ccc([C@@H](O)[C@@H](N)c2ccc(Cl)cc2)cc1 (racemic) [Example 10, rac-erythro-[2-Amino-2-(4-chloro-phenyl)-1-(4-isopropoxy-phenyl)-ethanol hydrochloride] | 0.188 µM |
| Cc1cc([C@@H](O)[C@@H](N)c2ccc(Cl)c(Cl)c2)ccc1-c1cncc(F)c1 (racemic) [Example 14, rac-erythro-[2-Amino-2-(3,4-dichloro-phenyl)-1-[4-(5-fluoro-pyridin-3-yl)-3-methyl-phenyl]-ethanolbis-trifluoroacetate] | 0.275 µM |
| N[C@@H](c1ccc(Cl)c(Cl)c1)[C@H](O)c1ccc(OC2CCOC2)cc1F (mixture of isomers) [Example 16, rac-erythro-[rac-2-Amino-2-(3,4-dichloro-phenyl)-1-[2-fluoro-4-(tetrahydro-furan-3-yloxy)-phenyl]-ethanol hydrochloride] | 0.039 µM |
| N[C@@H](c1ccc(Cl)c(Cl)c1)[C@H](O)c1ccc(OC2CCOCC2)c(F)c1 (racemic) [Example 18, rac-erythro-[2-Amino-2-(3,4-dichloro-phenyl)-1-[3-fluoro-4-(tetrahydro-pyran-4-yloxy)-phenyl]-ethanol hydrochloride] | 0.049 µM |
| N[C@@H](c1ccc(Cl)c(Cl)c1)[C@H](O)c1cc(F)c(OC2CCOCC2)c(F)c1 (racemic) [Example 20, rac-erythro-[2-Amino-2-(3,4-dichloro-phenyl)-1-[3,5-difluoro-4-(tetrahydro-pyran-4-yloxy)-phenyl]-ethanol hydrochloride] | 0.09 µM |
| N[C@@H](c1ccc(Cl)c(Cl)c1)[C@H](O)c1ccc(OC2CCOC2)cn1 (mixture of isomers) [Example 23, rac-erythro-[rac-2-Amino-2-(3,4-dichloro-phenyl)-1-[5-(tetrahydro-furan-3-yloxy)-pyridin-2-yl]-ethanoldihydrochloride] | 0.16 µM |
| Cc1cc(OC2CCOC2)ncc1[C@@H](O)[C@@H](N)c1ccc(Cl)c(Cl)c1 (mixture of isomers) [Example 24, rac-erythro-[(rac)-2-Amino-2-(3,4-dichloro-phenyl)-1-[4-methyl-6-(tetrahydro-furan-3-yloxy)-pyridin-3-yl]-ethanoldihydrochloride] | 0.205 µM |
| N[C@@H](c1ccc(Cl)c(Cl)c1)[C@H](O)c1ccc(OC2CCOCC2)cn1 (racemic) [Example 25, rac-erythro-[2-Amino-2-(3,4-dichloro-phenyl)-1-[5-(tetrahydro-pyran-4-yloxy)-pyridin-2-yl]-ethanoldihydrochloride] | 0.216 µM |

The remaining compounds from weak to strong by IC50, led by results:

| IC50 | SMILES |
| --- | --- |
| 0.148 µM | N[C@@H](c1ccc(Cl)c(Cl)c1)[C@H](O)c1ccc(-c2cncc(F)c2)cn1 (racemic) [Example 12, rac-erythro-[2-Amino-2-(3,4-dichloro-phenyl)-1-(5′-fluoro-[3,3′]bipyridinyl-6-yl)-ethanoltrihydrochloride] |
| 0.131 µM | N[C@@H](c1ccc(Cl)c(Cl)c1)[C@H](O)c1ccc(OC2CCOCC2)nc1 (racemic) [Example 22, rac-erythro-[2-Amino-2-(3,4-dichloro-phenyl)-1-[6-(tetrahydro-pyran-4-yloxy)-pyridin-3-yl]-ethanoldihydrochloride] |
| 0.113 µM | COc1cccc(-c2cnc([C@@H](O)[C@@H](N)c3ccc(Cl)c(Cl)c3)c(F)c2)c1 (racemic) [Example 13, rac-erythro-[2-Amino-2-(3,4-dichloro-phenyl)-1-[3-fluoro-5-(3-methoxy-phenyl)-pyridin-2-yl]-ethanoldihydrochloride] |
| 0.097 µM | CS(=O)(=O)c1cccc(-c2ccc([C@@H](O)[C@@H](N)c3ccc(Cl)c(Cl)c3)nc2)c1 (racemic) [Example 11, rac-erythro-[2-Amino-2-(3,4-dichloro-phenyl)-1-[5-(3-methanesulfonyl-phenyl)-pyridin-2-yl]-ethanol bistrifluoroacetate] |
| 0.091 µM | Cc1cc(OC2CCOCC2)ncc1[C@@H](O)[C@@H](N)c1ccc(Cl)c(Cl)c1 (racemic) [Example 21, rac-erythro-[2-Amino-2-(3,4-dichloro-phenyl)-1-[4-methyl-6-(tetrahydro-pyran-4-yloxy)-pyridin-3-yl]-ethanoldihydrochloride] |
| 0.082 µM | N[C@@H](c1ccc(Cl)c(Cl)c1)[C@H](O)c1ccc(OC2CCOC2)nc1 (mixture of isomers) [Example 19, rac-erythro-[rac-2-Amino-2-(3,4-dichloro-phenyl)-1-[6-(tetrahydro-furan-3-yloxy)-pyridin-3-yl]-ethanoldihydrochloride] |
| 0.063 µM | Cc1cc(-c2cncc(F)c2)ccc1[C@@H](O)[C@@H](N)c1ccc(Cl)c(Cl)c1 (racemic) [Example 2, rac-erythro-[2-Amino-2-(3,4-dichloro-phenyl)-1-[4-(5-fluoro-pyridin-3-yl)-2-methyl-phenyl]]-ethanol dihydrochloride] |
| 0.043 µM | Cc1nc(OC2CCOCC2)ccc1[C@@H](O)[C@@H](N)c1ccc(Cl)c(Cl)c1 (racemic) [Example 17, rac-erythro-[2-Amino-2-(3,4-dichloro-phenyl)-1-[2-methyl-6-(tetrahydro-pyran-4-yloxy)-pyridin-3-yl]-ethanoldihydrochloride] |
| 0.041 µM | CS(=O)(=O)c1cccc(-c2ccc([C@@H](O)[C@@H](N)c3ccc(Cl)c(Cl)c3)cc2)c1 (racemic) [Example 7, rac-erythro-[2-Amino-2-(3,4-dichloro-phenyl)-1-(3′-methanesulfonyl-biphenyl-4-yl)-ethanol trifluoroacetate] |
| 0.025 µM | CS(=O)(=O)c1cccc(-c2ccc([C@@H](O)[C@@H](N)c3ccc(Cl)c(Cl)c3)c(F)c2)c1 (racemic) [Example 1, rac-erythro-[2-Amino-2-(3,4-dichloro-phenyl)-1-(3-fluoro-3′-methanesulfonyl-biphenyl-4-yl)-ethanol trifluoroacetate] |
| 0.021 µM | Cc1nc(OC2CCOC2)ccc1[C@@H](O)[C@@H](N)c1ccc(Cl)c(Cl)c1 (mixture of isomers) [Example 15, rac-erythro-[rac-2-Amino-2-(3,4-dichloro-phenyl)-1-[2-methyl-6-(tetrahydro-furan-3-yloxy)-pyridin-3-yl]-ethanoldihydrochloride] |
